Measurements reported in US9211300B2 (priority 2012, dated 2015).
Where two headings read alike, the source gives them in different places.

Experiments:
[1] = molecular target: T1, wild-type HCV genotype 1b NS5B protein (recombinant HCV polymerase) (Hepatitis C virus genotype 1b, UniProt Q9WMX2); assay: HCV Polymerase Enzyme Assay, wild-type; format: biochemical
T1 construct: HCV genotype 1b NS5B protein were used to generate recombinant HCV polymerases (with a deletion of the 21 carboxy terminal amino acids); made in house
Excerpt: (§1) Test compounds in the form of nucleoside triphosphates were examined for inhibitory activity against purified HCV polymerase in a standard assay. Bacterial expression constructs encoding the approximately 65 kDa HCV genotype 1b NS5B protein were used to generate recombinant HCV polymerases (with a deletion of the 21 carboxy terminal amino acids). Both the wild-type genotype 1b protein and protein containing the S282T mutation were expressed and purified for use in the enzymatic activity assay.
(§2) The enzymatic activity assay measured the inhibitory effect of increasing concentrations of test compound on the incorporation of α-[^33P]-labeled nucleotide into trichloroacetic acid-precipitable material. Recombinant polymerase and synthetic RNA template were combined in reaction buffer containing ribonucleoside triphosphates, α-[^33P]-labeled nucleotide and eight concentrations of test compound in three-fold dilutions. Reactions were incubated for two hours at 30° C.
(§3) Reactions were terminated by the addition of ice-cold trichloroacetic acid and sodium pyrophosphate to promote precipitation of newly-synthesized ribonucleic acid. Precipitable material from the reactions was collected by filtration onto 96-well filter plates, washed extensively with water, and quantified by liquid scintillation.
(§4) The inhibitory activity of test compounds was determined by fitting results to dose-response curves using XLfit software.

HCV genotype 1b replicon = assay: HCV Replicon Assay (Zluc, luciferase); format: cell-based; settings: Zluc cells (Huh-7-derived), 72 hours of incubation
Protocol: Huh-7-derived cell line (Zluc) that harbors an HCV genotype 1b replicon and a luciferase reporter gene was grown in Dulbecco's Modified Eagle Medium (DMEM) supplemented with 10% fetal bovine serum, 2 mM GlutaMAX, 1% MEM nonessential amino acids, 100 IU/mL penicillin, 100 μg/mL streptomycin, and 0.5 mg/mL Geneticin® (G418). For dose response testing the cells were seeded in 96-well plates at 7.5×10^3 cells per well in a volume of 50 μL, and incubated at 37° C./5% CO2. Drug solutions were made up freshly in Huh-7 media as 2× stocks. Ten additional 5-fold dilutions were prepared from these stocks in DMEM without G418. At least three hours after Zluc cells were seeded, drug treatment was initiated by adding 50 μL of drug dilutions to the plates in duplicate. Final concentrations of drug ranged from 100 μM to […]. Cells were then incubated at 37° C./5% CO2. Alternatively, compounds were tested at two concentrations (1 μM and 10 μM). […] For this, media was removed from the plates via gentle tapping. Fifty microliters of ONE-glo luciferase assay reagent was added to each well. The plates were shaken gently for 3 min at room temperature and luminescence was measured on a Victor^3 V 1420 multilabel counter (Perkin Elmer) with a 1 second read time using a 700 nm cut-off filter. The EC50 values were calculated from dose response curves from the resulting best-fit equations determined by Microsoft Excel and XLfit 4.1 software. When screening at two fixed concentrations, the results were expressed as % inhibition at 1 μM and 10 μM.

Zluc cells = assay: Cytotoxicity evaluation, CellTiter-Blue Cell Viability Assay; format: cell-based; settings: read-out: HCV Replicon CC50
Protocol: (§5) For cytotoxicity evaluation, Zluc cells were treated with test compound as described herein, and cell viability was monitored using the CellTiter-Blue Cell Viability Assay (Promega) by adding 20 μL of the assay solution to each well. The plates were then incubated at 37° C./5% CO2 for at least 3 hours.

[2] = CD-1 mice, liver triphosphate, normalised to 1 μmol/kg; for Ms Liver TP AUC (pmol · hr/g at 1 μmol/kg) following a single 2 mg/kg dose: single oral 2 mg/kg dose
Protocol: A single oral dose of test compound at 10 mg/kg and/or 2 mg/kg in PEG 200 (dose volume 5 mL/kg) was administered to nine CD-1 male mice. Five untreated animals were used for the collection of control plasma and liver. Terminal plasma and liver samples were collected from three animals per time point at 4, 12 and 24 hours post dose. Liver specimens were collected from all animals immediately after the incision. Freezing forceps stored in liquid nitrogen were used to freeze the liver before excision. Only liver samples were analyzed for triphosphate levels.
Liver samples were analyzed for the active species nucleoside triphosphate by LC-MS/MS. The triphosphate levels were assayed by homogenizing (on ice) a known weight of mouse liver with 4× volume of 0.95 M trichloroacetic acid (TCA) in water. Internal standard solution was added to the homogenate and mixed. Sample homogenates were centrifuged at 16.1 krpm for 5 minutes. Supernatants were transferred to 96 well plates and injected onto the LC-MS/MS system. The samples were chromatographed on a Luna NH2 column using a gradient system of ammonium acetate (1 mM to 20 mM and pH 8.0 to pH 10.0) in water and acetonitrile (70:30). The analyte was detected and quantified by tandem mass spectrometry using the analyte specific MRM transition on an API4000 equipped with a Turbo Ionspray® interface.

[3] = molecular target: T2, HCV genotype 1b NS5B protein containing the S282T mutation (Hepatitis C virus genotype 1b, UniProt Q9WMX2, S2701T); assay: HCV Polymerase Enzyme Assay, S282T; format: biochemical; settings: nucleoside triphosphates; genotype 1b NS5B with S282T mutation
T2 construct: HCV genotype 1b NS5B protein were used to generate recombinant HCV polymerases (with a deletion of the 21 carboxy terminal amino acids); made in house
Excerpt: as §1
as §2, with “Reactions were incubated for two hours at 30° C.” left out
as §3, §4

[4] = Cytotoxicity evaluation, CellTiter-Blue Cell Viability Assay; format: cell-based; settings: human, Zluc cells, read-out: HCV Replicon CC50
Protocol: as §5

[5] = Liver triphosphate after a single oral dose in cynomolgus monkeys; format: in vivo
Protocol: For Compound 2b, isomer 1, a single oral dose at 10 mg/kg in PEG 200 (dose volume 3 mL/kg) was administered to three cynomolgus monkeys. One Untreated animal was used for the collection of control liver. Terminal liver samples were collected from three animals at 6 hours post dose.

[6] = read-out: Wild-Type IC50, nucleoside triphosphates, wild-type genotype 1b NS5B

O=c1[nH]c(=O)n([C@@H]2O[C@](F)(COP(=O)(O)OP(=O)(O)OP(=O)(O)O)[C@@H](O)[C@H]2O)cc1Br [Compound 104] showed an IC50 [1] of 1 to 10 µM.
With CC(C)OC(=O)[C@H](C)NP(=O)(OC[C@@]1(F)O[C@@H](n2ccc(=O)[nH]c2=O)[C@H](O)[C@@H]1O)Oc1ccccc1 (single isomer, unassigned) [Compound 2b Diastereomer 2] the EC50 (HCV genotype 1b replicon; listed as 2b Diastereomer 2) was 1 to 10 µM, the CC50 (Zluc cells) was > 50 µM and the “Ms Liver TP AUC (pmol · hr/g at 1 μmol/kg) following a single 2 mg/kg dose” value [2] was “+++++ (1600 < +++++)”.
For Nc1ccn(C2O[C@](F)(COP(=O)(O)OP(=O)(O)OP(=O)(O)O)[C@@H](O)[C@H]2O)c(=O)n1 (stereo partly shown) [Compound 105], the IC50 [1, 6] was 0.25 to 1 µM.
C[C@]1(O)[C@H](n2cc(Br)c(=O)[nH]c2=O)O[C@](F)(COP(=O)(O)OP(=O)(O)OP(=O)(O)O)[C@H]1O [Compound 101] showed an IC50 [1] of 1 to 10 µM.
With O=c1ccn(C2O[C@](F)(COP(=O)(O)OP(=O)(O)OP(=O)(O)O)[C@@H](O)[C@H]2O)c(=O)[nH]1 (stereo partly shown) [Compound 102] the IC50 [1, 6] was 0.25 to 1 µM and the IC50 [3] was < 0.25 µM.
With CC(C)OC(=O)[C@H](C)NP(=O)(OC[C@@]1(F)O[C@@H](n2cnc3c(=O)[nH]c(N)nc32)[C@@H](O)C1O)Oc1ccccc1 (single isomer, unassigned) [Compound 3b Diastereomer 2] the EC50 (HCV genotype 1b replicon; Hepatitis C virus, 72 h) was 0.25 to 1 µM and the CC50 [4] was > 50 µM.
In the case of Nc1nc2c(ncn2[C@@H]2O[C@](F)(COP(=O)(O)OP(=O)(O)OP(=O)(O)O)[C@@H](O)[C@H]2O)c(=O)[nH]1 [Compound 103], the IC50 [1] is reported as < 0.25 µM and the IC50 [3] is reported as < 0.25 µM.
In the case of CC(C)OC(=O)[C@H](C)NP(=O)(OC[C@@]1(F)O[C@@H](n2ccc(=O)[nH]c2=O)[C@H](O)[C@@H]1O)Oc1ccccc1 (single isomer, unassigned) [Compound 2b Diastereomer 1], the EC50 (HCV genotype 1b replicon; listed as 2b Diastereomer 1) is reported as > 10 µM, the CC50 [4] is reported as > 50 µM and the “Nucleoside triphosphate in Liver C6 (pmol/g) at 1 μmol/kg” value ([5]; 6 hr post dose, normalised to 1 μmol/kg) is reported as “+ (+ ≦ 10 pmol/g)”. For the same molecule, the “Nucleoside triphosphate in Liver C6 (pmol/g) at 10 mg/kg” value ([5]; single oral 10 mg/kg, concentration at 6 hr post dose) was “++++ (100 pmol/g < ++++ ≦ 160 pmol/g)”, the “Ms Liver TP AUC (pmol · hr/g at 1 μmol/kg) following a single 2 mg/kg dose” value [2] was “+++++ (1600 < +++++)” and the “Ms Liver TP AUC (pmol · hr/g at 1 μmol/kg) following a single 10 mg/kg dose” value ([2]; single oral 10 mg/kg dose) was “+++++ (1600 < +++++)”.
In the case of Nc1ncnc2c1ncn2[C@@H]1O[C@](F)(COP(=O)(O)OP(=O)(O)OP(=O)(O)O)[C@@H](O)[C@H]1O [Compound 106], the IC50 [1] is reported as > 10 µM.
